Data published in ChEMBL document CHEMBL3991601, “The target landscape of clinical kinase drugs” (Science, 2017).
Active and inactive are the calls of the source. Rule as the data show it, for most assays here: actives have a measured Kd and inactives only a lower limit.

Legend:
[1] = biological target: Ribosomal protein S6 kinase alpha-5 (Homo sapiens, UniProt O75582)
[2] = biological target: T1, Succinate--CoA ligase [ADP-forming] subunit beta, mitochondrial (Homo sapiens, UniProt Q9P2R7)
T1 sequence (Q9P2R7 whole entry): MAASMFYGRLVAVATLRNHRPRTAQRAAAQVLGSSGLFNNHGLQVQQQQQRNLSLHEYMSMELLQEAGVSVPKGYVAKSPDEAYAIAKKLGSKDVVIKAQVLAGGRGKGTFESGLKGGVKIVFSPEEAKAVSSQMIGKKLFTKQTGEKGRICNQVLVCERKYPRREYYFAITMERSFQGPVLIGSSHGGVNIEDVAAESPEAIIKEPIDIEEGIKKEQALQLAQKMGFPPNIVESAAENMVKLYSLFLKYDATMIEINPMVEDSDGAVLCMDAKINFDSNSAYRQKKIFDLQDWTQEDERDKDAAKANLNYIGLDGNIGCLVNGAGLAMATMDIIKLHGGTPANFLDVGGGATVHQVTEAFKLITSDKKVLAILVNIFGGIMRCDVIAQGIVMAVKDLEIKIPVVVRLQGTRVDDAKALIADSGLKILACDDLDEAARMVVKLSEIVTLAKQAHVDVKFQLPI

[3] = biological target: Mitogen-activated protein kinase kinase kinase 20 (Homo sapiens, UniProt Q9NYL2)
[4] = biological target: Serine/threonine-protein kinase 16 (Homo sapiens, UniProt O75716)
[5] = biological target: T2, Breakpoint cluster region protein (Homo sapiens, UniProt P11274)
T2 sequence (P11274 whole entry): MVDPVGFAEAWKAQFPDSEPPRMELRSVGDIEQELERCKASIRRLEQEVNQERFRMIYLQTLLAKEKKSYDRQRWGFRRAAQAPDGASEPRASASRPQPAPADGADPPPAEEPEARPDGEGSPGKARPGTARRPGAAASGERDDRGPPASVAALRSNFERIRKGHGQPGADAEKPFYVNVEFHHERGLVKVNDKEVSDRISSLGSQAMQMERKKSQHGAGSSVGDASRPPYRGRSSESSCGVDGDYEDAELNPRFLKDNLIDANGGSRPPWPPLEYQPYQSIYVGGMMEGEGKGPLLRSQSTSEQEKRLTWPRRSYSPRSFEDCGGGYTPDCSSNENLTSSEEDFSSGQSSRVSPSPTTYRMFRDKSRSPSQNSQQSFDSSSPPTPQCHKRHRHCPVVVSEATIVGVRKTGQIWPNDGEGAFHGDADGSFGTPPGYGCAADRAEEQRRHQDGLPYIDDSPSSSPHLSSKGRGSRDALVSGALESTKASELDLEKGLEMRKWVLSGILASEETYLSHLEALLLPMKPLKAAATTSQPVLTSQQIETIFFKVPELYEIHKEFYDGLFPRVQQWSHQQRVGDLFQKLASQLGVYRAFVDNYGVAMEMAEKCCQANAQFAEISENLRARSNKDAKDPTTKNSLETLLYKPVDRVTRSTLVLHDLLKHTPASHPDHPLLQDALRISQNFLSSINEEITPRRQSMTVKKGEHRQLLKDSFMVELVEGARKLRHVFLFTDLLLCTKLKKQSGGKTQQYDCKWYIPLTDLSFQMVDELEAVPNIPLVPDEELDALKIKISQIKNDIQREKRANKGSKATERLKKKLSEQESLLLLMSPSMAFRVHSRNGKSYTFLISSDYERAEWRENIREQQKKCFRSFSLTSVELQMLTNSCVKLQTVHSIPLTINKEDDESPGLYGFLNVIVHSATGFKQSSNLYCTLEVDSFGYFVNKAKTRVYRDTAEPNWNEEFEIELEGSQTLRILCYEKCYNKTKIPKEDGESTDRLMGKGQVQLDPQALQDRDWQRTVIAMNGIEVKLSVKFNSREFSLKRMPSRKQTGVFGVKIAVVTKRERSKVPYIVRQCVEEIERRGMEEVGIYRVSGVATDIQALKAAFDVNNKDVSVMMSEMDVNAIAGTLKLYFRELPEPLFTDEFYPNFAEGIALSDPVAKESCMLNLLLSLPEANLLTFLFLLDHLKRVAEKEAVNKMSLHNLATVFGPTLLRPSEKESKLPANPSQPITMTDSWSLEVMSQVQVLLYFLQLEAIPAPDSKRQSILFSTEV

[6] = biological target: Dual specificity mitogen-activated protein kinase kinase 2 (Homo sapiens, UniProt P36507)
[7] = biological target: Citron Rho-interacting kinase (Homo sapiens, UniProt O14578)
Also: in the data inactive means no Kd found up to 30 µM.

Dual specificity mitogen-activated protein kinase kinase 2, sequence (P36507 whole entry): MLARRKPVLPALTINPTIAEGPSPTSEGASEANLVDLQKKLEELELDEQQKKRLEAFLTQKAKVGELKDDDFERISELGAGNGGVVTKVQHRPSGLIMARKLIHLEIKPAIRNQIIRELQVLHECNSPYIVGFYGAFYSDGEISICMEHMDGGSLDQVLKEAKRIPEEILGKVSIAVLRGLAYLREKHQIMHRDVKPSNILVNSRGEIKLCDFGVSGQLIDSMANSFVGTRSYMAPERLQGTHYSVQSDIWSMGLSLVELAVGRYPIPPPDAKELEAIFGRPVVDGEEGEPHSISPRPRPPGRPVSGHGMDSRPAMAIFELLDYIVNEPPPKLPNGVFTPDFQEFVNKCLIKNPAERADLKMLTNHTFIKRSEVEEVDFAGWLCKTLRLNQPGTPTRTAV
Serine/threonine-protein kinase 16, sequence (O75716 whole entry): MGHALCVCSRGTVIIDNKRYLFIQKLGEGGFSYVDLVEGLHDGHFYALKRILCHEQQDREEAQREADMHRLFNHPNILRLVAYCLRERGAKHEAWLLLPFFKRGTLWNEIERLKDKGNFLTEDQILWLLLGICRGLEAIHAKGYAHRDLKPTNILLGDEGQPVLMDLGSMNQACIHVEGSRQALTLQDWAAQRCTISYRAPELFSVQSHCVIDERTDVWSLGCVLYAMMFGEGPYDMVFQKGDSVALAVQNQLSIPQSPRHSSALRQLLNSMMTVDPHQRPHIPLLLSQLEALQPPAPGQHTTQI
Mitogen-activated protein kinase kinase kinase 20, sequence (Q9NYL2 whole entry): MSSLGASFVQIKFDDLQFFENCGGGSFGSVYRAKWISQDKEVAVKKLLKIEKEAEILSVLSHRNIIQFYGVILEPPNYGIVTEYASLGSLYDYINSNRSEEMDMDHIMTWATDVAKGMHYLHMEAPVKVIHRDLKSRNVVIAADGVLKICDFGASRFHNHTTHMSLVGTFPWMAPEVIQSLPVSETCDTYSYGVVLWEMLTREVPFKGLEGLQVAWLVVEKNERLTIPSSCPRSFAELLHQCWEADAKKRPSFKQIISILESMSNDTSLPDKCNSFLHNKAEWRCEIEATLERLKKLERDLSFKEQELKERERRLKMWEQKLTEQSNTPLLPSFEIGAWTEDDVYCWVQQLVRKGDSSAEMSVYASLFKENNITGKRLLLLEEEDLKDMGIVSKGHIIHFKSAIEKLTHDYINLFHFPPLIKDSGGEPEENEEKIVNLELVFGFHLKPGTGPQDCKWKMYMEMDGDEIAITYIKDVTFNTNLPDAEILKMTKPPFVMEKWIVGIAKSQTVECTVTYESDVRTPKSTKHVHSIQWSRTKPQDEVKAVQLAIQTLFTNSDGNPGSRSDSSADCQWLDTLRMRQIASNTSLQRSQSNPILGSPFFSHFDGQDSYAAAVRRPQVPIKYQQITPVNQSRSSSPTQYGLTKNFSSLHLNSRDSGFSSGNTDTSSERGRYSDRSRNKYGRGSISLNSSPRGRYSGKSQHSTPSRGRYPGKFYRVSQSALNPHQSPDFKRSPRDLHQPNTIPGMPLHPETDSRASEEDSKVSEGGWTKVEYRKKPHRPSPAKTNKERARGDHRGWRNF
Citron Rho-interacting kinase, sequence (O14578 whole entry): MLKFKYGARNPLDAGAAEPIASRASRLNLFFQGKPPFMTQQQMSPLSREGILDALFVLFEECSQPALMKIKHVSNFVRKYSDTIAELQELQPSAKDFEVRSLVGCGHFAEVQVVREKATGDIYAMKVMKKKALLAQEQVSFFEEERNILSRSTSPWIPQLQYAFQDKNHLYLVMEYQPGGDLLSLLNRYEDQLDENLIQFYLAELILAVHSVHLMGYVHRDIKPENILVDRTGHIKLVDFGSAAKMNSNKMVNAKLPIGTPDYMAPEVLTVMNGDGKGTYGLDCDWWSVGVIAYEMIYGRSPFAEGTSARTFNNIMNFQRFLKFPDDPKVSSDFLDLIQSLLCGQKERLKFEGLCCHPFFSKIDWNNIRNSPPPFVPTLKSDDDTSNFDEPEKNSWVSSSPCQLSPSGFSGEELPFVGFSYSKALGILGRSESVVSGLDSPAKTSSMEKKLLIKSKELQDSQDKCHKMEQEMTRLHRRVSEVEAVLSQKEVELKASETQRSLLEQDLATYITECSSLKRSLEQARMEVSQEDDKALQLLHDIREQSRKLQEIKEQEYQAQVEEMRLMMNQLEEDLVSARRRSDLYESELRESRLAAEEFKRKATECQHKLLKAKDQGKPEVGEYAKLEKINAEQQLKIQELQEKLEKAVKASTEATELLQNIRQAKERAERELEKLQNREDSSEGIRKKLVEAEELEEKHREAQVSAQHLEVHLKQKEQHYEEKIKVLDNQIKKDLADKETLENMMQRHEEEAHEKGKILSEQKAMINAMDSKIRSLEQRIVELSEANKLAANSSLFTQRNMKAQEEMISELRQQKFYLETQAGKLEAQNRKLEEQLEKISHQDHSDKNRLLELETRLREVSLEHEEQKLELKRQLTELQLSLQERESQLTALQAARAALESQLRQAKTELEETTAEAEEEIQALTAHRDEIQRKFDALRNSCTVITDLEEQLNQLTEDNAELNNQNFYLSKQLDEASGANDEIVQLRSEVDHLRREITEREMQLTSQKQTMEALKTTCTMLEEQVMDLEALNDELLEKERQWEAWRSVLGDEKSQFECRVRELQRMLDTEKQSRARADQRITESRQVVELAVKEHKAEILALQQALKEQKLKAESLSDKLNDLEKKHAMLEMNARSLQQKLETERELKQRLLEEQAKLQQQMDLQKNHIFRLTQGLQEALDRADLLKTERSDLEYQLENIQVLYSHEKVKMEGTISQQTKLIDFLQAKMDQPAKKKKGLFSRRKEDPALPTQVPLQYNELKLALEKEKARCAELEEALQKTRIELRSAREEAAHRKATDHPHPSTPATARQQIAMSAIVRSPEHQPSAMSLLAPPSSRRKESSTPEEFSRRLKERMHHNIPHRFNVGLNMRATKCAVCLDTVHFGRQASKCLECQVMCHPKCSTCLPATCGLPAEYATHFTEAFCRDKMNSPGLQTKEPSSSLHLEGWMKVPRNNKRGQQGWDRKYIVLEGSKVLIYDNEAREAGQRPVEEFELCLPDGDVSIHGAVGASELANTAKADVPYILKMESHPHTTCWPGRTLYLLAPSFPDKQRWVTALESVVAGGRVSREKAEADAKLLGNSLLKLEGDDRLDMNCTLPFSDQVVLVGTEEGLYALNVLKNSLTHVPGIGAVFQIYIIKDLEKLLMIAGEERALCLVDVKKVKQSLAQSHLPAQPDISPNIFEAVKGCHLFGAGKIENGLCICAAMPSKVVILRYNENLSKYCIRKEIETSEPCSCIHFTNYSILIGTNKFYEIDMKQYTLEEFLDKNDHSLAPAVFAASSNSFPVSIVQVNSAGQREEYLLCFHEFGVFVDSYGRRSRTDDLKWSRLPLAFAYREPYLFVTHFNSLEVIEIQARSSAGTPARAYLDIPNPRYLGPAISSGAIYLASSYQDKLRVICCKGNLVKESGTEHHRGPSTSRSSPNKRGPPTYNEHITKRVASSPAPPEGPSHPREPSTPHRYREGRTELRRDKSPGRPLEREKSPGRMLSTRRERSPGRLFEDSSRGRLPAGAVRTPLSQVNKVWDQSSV
Ribosomal protein S6 kinase alpha-5, sequence (O75582 whole entry): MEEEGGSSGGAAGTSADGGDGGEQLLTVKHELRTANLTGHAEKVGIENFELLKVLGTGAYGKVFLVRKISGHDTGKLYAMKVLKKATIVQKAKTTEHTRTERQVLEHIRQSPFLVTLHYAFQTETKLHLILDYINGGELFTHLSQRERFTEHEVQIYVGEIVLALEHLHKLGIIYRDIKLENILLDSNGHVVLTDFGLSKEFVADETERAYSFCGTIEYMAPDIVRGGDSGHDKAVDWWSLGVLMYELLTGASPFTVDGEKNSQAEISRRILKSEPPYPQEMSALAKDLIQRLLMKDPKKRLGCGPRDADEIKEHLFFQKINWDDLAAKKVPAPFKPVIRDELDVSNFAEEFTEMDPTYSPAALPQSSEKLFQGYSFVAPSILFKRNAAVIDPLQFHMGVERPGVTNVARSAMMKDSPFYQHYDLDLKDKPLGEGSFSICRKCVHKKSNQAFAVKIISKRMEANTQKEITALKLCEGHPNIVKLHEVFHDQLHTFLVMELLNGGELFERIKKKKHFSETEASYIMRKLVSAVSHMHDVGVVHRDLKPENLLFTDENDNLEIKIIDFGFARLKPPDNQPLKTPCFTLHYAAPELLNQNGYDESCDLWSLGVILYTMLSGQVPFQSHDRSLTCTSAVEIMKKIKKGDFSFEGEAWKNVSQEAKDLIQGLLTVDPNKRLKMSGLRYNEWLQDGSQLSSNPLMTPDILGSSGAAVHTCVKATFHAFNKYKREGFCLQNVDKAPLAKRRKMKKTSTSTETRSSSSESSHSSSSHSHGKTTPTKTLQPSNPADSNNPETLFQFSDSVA

| Kd [1] | Kd [2] | Kd [3] | Kd [4] | Kd [5] | Kd [6] | Kd [7] | Compound |
| --- | --- | --- | --- | --- | --- | --- | --- |
| > 30 µM (inactive) | > 30 µM (inactive) | > 30 µM (inactive) | > 30 µM (inactive) | > 30 µM (inactive) | > 30 µM (inactive) | > 30 µM (inactive) | C[C@@H](Nc1cc(F)cc(F)c1)c1cc(C(=O)N(C)C)cc2c(=O)cc(N3CCOCC3)oc12 [AZD-8186] |
| > 30 µM (inactive) | > 30 µM (inactive) | > 30 µM (inactive) | > 30 µM (inactive) | > 30 µM (inactive) | > 30 µM (inactive) | > 30 µM (inactive) | Cc1cc([C@@H](C)Nc2ccccc2C(=O)O)c2nc(N3CCOCC3)cc(=O)n2c1 [AZD-6482] |
| > 30 µM (inactive) | > 30 µM (inactive) | > 30 µM (inactive) | > 30 µM (inactive) | > 30 µM (inactive) | > 30 µM (inactive) | 4.36 µM (active) | CCS(=O)(=O)N1CC(CC#N)(n2cc(-c3ncnc4[nH]ccc34)cn2)C1 [BARICITINIB] |
| > 30 µM (inactive) | > 30 µM (inactive) | > 30 µM (inactive) | > 30 µM (inactive) | > 30 µM (inactive) | > 30 µM (inactive) | > 30 µM (inactive) | CN1N=C(N)c2cn([C@@H]3O[C@H](COP(=O)(O)O)[C@@H](O)[C@H]3O)c3ncnc1c23 [TRICIRIBINE PHOSPHATE] |
| > 30 µM (inactive) | > 30 µM (inactive) | 0.274 µM (active) | > 30 µM (inactive) | 0.739 µM (active) | > 30 µM (inactive) | > 30 µM (inactive) | CNC(=O)c1cc(Oc2ccc(NC(=O)Nc3ccc(Cl)c(C(F)(F)F)c3)c(F)c2)ccn1 [REGORAFENIB] |
| > 30 µM (inactive) | > 30 µM (inactive) | > 30 µM (inactive) | > 30 µM (inactive) | > 30 µM (inactive) | > 30 µM (inactive) | 3.62 µM (active) | O=C(Nc1ccc(-c2ccnc(Nc3ccc(N4CCOCC4)cc3)n2)cc1)C1CCCN1 (configuration not stated) [XL-019] |
| > 30 µM (inactive) | > 30 µM (inactive) | > 30 µM (inactive) | > 30 µM (inactive) | > 30 µM (inactive) | – | > 30 µM (inactive) | CNS(=O)(=O)Nc1nccc(Cc2c(C)c3ccc(Oc4ncccn4)cc3oc2=O)c1F [AVUTOMETINIB] |
| > 30 µM (inactive) | > 30 µM (inactive) | – | 0.702 µM (active) | > 30 µM (inactive) | > 30 µM (inactive) | > 30 µM (inactive) | Cc1cc(Nc2cc(N3CCN(C)CC3)nc(/C=C/c3ccccc3)n2)n[nH]1 [ENMD-2076] |
| > 30 µM (inactive) | > 30 µM (inactive) | 0.316 µM (active) | > 30 µM (inactive) | > 30 µM (inactive) | > 30 µM (inactive) | > 30 µM (inactive) | CCCS(=O)(=O)Nc1ccc(F)c(C(=O)c2c[nH]c3ncc(-c4ccc(Cl)cc4)cc23)c1F [VEMURAFENIB] |
| > 30 µM (inactive) | > 30 µM (inactive) | > 30 µM (inactive) | > 30 µM (inactive) | 4.11 µM (active) | > 30 µM (inactive) | > 30 µM (inactive) | COc1cc2nccc(Oc3ccc(NC(=O)NC4CC4)c(Cl)c3)c2cc1C(N)=O [LENVATINIB] |
| – | – | – | – | > 30 µM (inactive) | – | – | Nc1nc(N)c2nc(-c3cccc(O)c3)c(-c3cccc(O)c3)nc2n1 [TG100-115] |
| > 30 µM (inactive) | > 30 µM (inactive) | > 30 µM (inactive) | > 30 µM (inactive) | > 30 µM (inactive) | – | > 30 µM (inactive) | CC(=O)Nc1cccc(-n2c(=O)n(C3CC3)c(=O)c3c(Nc4ccc(I)cc4F)n(C)c(=O)c(C)c32)c1 [TRAMETINIB] |
| > 30 µM (inactive) | – | > 30 µM (inactive) | > 30 µM (inactive) | > 30 µM (inactive) | > 30 µM (inactive) | > 30 µM (inactive) | COc1cc(OC)c(/C=C/S(=O)(=O)Cc2ccc(OC)c(NCC(=O)O)c2)c(OC)c1 [RIGOSERTIB] |
| – | > 30 µM (inactive) | – | – | > 30 µM (inactive) | – | – | CCn1c(-c2nonc2N)nc2c(C#CC(C)(C)O)ncc(OC[C@H]3CCCNC3)c21 [GSK-690693] |
| – | – | – | – | 17.4 µM (active) | – | – | CN1CCN(c2ccc3nc(-c4c(N)c5c(F)cccc5[nH]c4=O)[nH]c3c2)CC1 [DOVITINIB] |
| > 30 µM (inactive) | > 30 µM (inactive) | – | > 30 µM (inactive) | > 30 µM (inactive) | > 30 µM (inactive) | > 30 µM (inactive) | COC(=O)N[C@@H](C)CNc1nccc(-c2cn(C(C)C)nc2-c2cc(Cl)cc(NS(C)(=O)=O)c2F)n1 [ENCORAFENIB] |
| > 30 µM (inactive) | > 30 µM (inactive) | – | 1.87 µM (active) | > 30 µM (inactive) | > 30 µM (inactive) | > 30 µM (inactive) | C1=C/COCc2cc(ccc2OCCN2CCCC2)Nc2nccc(n2)-c2cccc(c2)COC/1 [PACRITINIB] |
| > 30 µM (inactive) | > 30 µM (inactive) | > 30 µM (inactive) | > 30 µM (inactive) | – | > 30 µM (inactive) | 4.26 µM (active) | Cn1ncc(Cl)c1-c1cc(C(=O)N[C@H](CN)Cc2cccc(F)c2)sc1Cl [AFURESERTIB] |
| > 30 µM (inactive) | > 30 µM (inactive) | > 30 µM (inactive) | > 30 µM (inactive) | > 30 µM (inactive) | – | > 30 µM (inactive) | CCc1cnn2c(NCc3ccc[n+]([O-])c3)cc(N3CCCC[C@H]3CCO)nc12 [DINACICLIB] |
| – | > 30 µM (inactive) | – | 0.21 µM (active) | 8.09 µM (active) | > 30 µM (inactive) | 1.1 µM (active) | Cc1nc(N)sc1-c1ccnc(Nc2ccc(N3CCOCC3)cc2)n1 [CYC-116] |
| > 30 µM (inactive) | > 30 µM (inactive) | > 30 µM (inactive) | > 30 µM (inactive) | > 30 µM (inactive) | – | > 30 µM (inactive) | OCCn1cc(-c2cnc3nnn(Cc4ccc5ncccc5c4)c3n2)cn1 [PF-04217903] |
| > 30 µM (inactive) | > 30 µM (inactive) | – | > 30 µM (inactive) | 0.16 µM (active) | > 30 µM (inactive) | > 30 µM (inactive) | COc1cc2nccc(Oc3ccc(NC(=O)Nc4cc(C)on4)c(Cl)c3)c2cc1OC [TIVOZANIB] |
| > 30 µM (inactive) | – | 9.54 µM (active) | > 30 µM (inactive) | > 30 µM (inactive) | > 30 µM (inactive) | > 30 µM (inactive) | COc1cc(CCc2cc(NC(=O)c3ccc(N4C[C@@H](C)N[C@@H](C)C4)cc3)n[nH]2)cc(OC)c1 [AZD-4547] |

| Compound | Kd [1] | Kd [2] | Kd [3] | Kd [4] | Kd [5] | Kd [6] | Kd [7] |
| --- | --- | --- | --- | --- | --- | --- | --- |
| O=C(Nc1cccc(Cl)c1)Nc1ncc(CCNc2ncnc3ccsc23)s1 [SNS-314] | > 30 µM (inactive) | > 30 µM (inactive) | – | > 30 µM (inactive) | > 30 µM (inactive) | – | – |
| Cc1cn(-c2cc(NC(=O)c3ccc(C)c(Nc4nccc(-c5cccnc5)n4)c3)cc(C(F)(F)F)c2)cn1 [NILOTINIB] | – | > 30 µM (inactive) | – | – | – | – | – |
| COC(=O)[C@@]1(O)C[C@H]2O[C@]1(C)n1c3ccccc3c3c4c(c5c6ccccc6n2c5c31)C(=O)NC4 [K-252A] | 14.7 µM (active) | > 30 µM (inactive) | > 30 µM (inactive) | > 30 µM (inactive) | > 30 µM (inactive) | – | > 30 µM (inactive) |
